Measurements published in patent EP2753300B1, “COMBINATION OF CARRAGEENAN AND C-GLYCOSIDE AND USES THEREOF” (L'Oréal, priority 2011, dated 2013).

Tested on: épidermes reconstruits d'Episkin
Test: Maturation of the cornified envelope: count of mature envelopes (involucrin immunolabelling / Nile Red) after 7 days of treatment of reconstructed epidermis
Type: cell-based
Settings: 168 h; C-glycoside 2,5% (p/v) alone; 30µl at J7, J9, J10, J13; read-out J14; read-out: augmentation du taux d'enveloppes cornées matures par rapport au témoin eau (Moy)
Source text: Les épidermes reconstruits d'Episkin ont été utilisés pour évaluer l'impact de molécules sur la maturation de l'enveloppe cornée.
Les Episkin J7 ont été cultivés avec le carraghénane et les associations carraghénane + C-BETA-D-XYLOPYRANOSIDE-2-HYDROXY-PROPANE (HYDROXYPROPYL TETRAHYDROPYRANTRIOL) pendant 7 jours. Après isolement du stratum, les enveloppes cornées sont extraites.
Trois types d'enveloppes cornées, matures, intermédiaires et immatures sont identifiés et comptées par un logiciel d'analyse d'image développé spécifiquement. […]
Les lames immunomarquées sont visionnées sous microscope (DM6000B Leica) suivant 2 modes d'observation : contraste de phase et fluorescence.
Le contraste de phase fournit une image en niveau de gris nous permettant de visualiser l'ensemble des cellules présentes dans le champ. Le mode fluorescence (jeu de filtercube) est utilisé pour visualiser les fluorochromes fixées à l'échantillon : • Le Nile Red est une sonde fluorescente permettant de localiser les zones hydrophobes plus particulièrement les lipides. […]

Structure (SMILES): CC(O)C[C@@H]1OC[C@@H](O)[C@H](O)[C@H]1O (stereo partly drawn) [C-glycoside, C-β-D-xylopyranoside-2-hydroxy-propane]
- activation at 25000 µg/mL: 22%
